pIC50: −log10 of the molar value.
Tests used:
Assay in all cases: cells
Conditions in all cases: Homo sapiens
COLO-829 = assay type: functional, cell-based
Description: SANGER: Inhibition of human COLO-829 cell growth in a cell viability assay.

D-263MG = assay type: functional, cell-based
Description: SANGER: Inhibition of human D-263MG cell growth in a cell viability assay.

DJM-1 = assay type: functional, cell-based;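 also: growth inhibition of human DJM-1 cells, read out by a cell viability assay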
Description: SANGER: Inhibition of human DJM-1 cell growth in a cell viability assay.

EKVX = assay type: functional, cell-based;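 also: growth inhibition of human EKVX cells, read out with a cell viability assay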
Description: SANGER: Inhibition of human EKVX cell growth in a cell viability assay.

ES7 = assay type: functional, cell-based;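 also: growth inhibition of cultured human ES7 cells, read out as cell viability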
Description: SANGER: Inhibition of human ES7 cell growth in a cell viability assay.

EW-18 = assay type: functional, cell-based;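 also: growth inhibition of EW-18 cells, read out by a cell viability assay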
Description: SANGER: Inhibition of human EW-18 cell growth in a cell viability assay.

GCIY = assay type: functional, cell-based;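 also: growth inhibition of the human GCIY cell line, read out by a cell viability assay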
Description: SANGER: Inhibition of human GCIY cell growth in a cell viability assay.

GOTO = assay type: functional, cell-based;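 also: growth inhibition of GOTO cells, read out by a cell viability assay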
Description: SANGER: Inhibition of human GOTO cell growth in a cell viability assay.

HAL-01 = assay type: functional, cell-based;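 also: growth inhibition of human HAL-01 cells, read out with a cell viability assay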
Description: SANGER: Inhibition of human HAL-01 cell growth in a cell viability assay.

HCE-4 = assay type: functional, cell-based;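 also: cell viability assay measuring inhibition of growth in the human HCE-4 cell line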
Description: SANGER: Inhibition of human HCE-4 cell growth in a cell viability assay.

HT = assay type: functional, cell-based
Description: SANGER: Inhibition of human HT cell growth in a cell viability assay.

IST-MEL1 = assay type: functional, cell-based;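 also: growth inhibition of the cell line, read out with a cell viability assay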
Description: SANGER: Inhibition of human IST-MEL1 cell growth in a cell viability assay.

IST-SL1 = assay type: functional, cell-based;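 also: growth inhibition of human IST-SL1 cells, read out with a cell viability assay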
Description: SANGER: Inhibition of human IST-SL1 cell growth in a cell viability assay.

JVM-3 = assay type: functional, cell-based;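 also: growth inhibition of human JVM-3 cells, read out with a cell viability assay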
Description: SANGER: Inhibition of human JVM-3 cell growth in a cell viability assay.

K562 = assay type: functional, cell-based
Description: SANGER: Inhibition of human K-562 cell growth in a cell viability assay.

KG-1 = assay type: functional, cell-based;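 also: growth inhibition of KG-1 cells, read out by a cell viability assay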
Description: SANGER: Inhibition of human KG-1 cell growth in a cell viability assay.

KLE = assay type: functional, cell-based;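 also: growth inhibition of human KLE cells, read out with a cell viability assay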
Description: SANGER: Inhibition of human KLE cell growth in a cell viability assay.

KM-H2 = assay type: functional, cell-based;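 also: growth inhibition of KM-H2 cells, read out by a cell viability assay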
Description: SANGER: Inhibition of human KM-H2 cell growth in a cell viability assay.

KP-N-YS = assay type: functional, cell-based;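 also: cell viability assay measuring inhibition of cell line growth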
Description: SANGER: Inhibition of human KP-N-YS cell growth in a cell viability assay.

KS-1 = assay type: functional, cell-based;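 also: growth inhibition of KS-1 cells, read out with a cell viability assay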
Description: SANGER: Inhibition of human KS-1 cell growth in a cell viability assay.

KU812 cell line = assay type: functional, cell-based;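 also: growth inhibition of KU812 cells, read out with a cell viability assay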
Description: SANGER: Inhibition of human KU812 cell growth in a cell viability assay.

LB771-HNC = assay type: functional, cell-based;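 also: growth inhibition of LB771-HNC human cells, read out with a cell viability assay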
Description: SANGER: Inhibition of human LB771-HNC cell growth in a cell viability assay.

LB831-BLC = assay type: functional, cell-based;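 also: growth inhibition of LB831-BLC cells, read out with a cell viability assay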
Description: SANGER: Inhibition of human LB831-BLC cell growth in a cell viability assay.

LS-411N = assay type: functional, cell-based
LXF-289 cell line = assay type: functional, cell-based
Description: SANGER: Inhibition of human LXF-289 cell growth in a cell viability assay.

MHH-NB-11 = assay type: functional, cell-based;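 also: growth inhibition of human MHH-NB-11 cells, read out by a cell viability assay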
Description: SANGER: Inhibition of human MHH-NB-11 cell growth in a cell viability assay.

MMAC-SF = assay type: functional, cell-based;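 also: growth inhibition of human MMAC-SF cells, read out with a cell viability assay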
Description: SANGER: Inhibition of human MMAC-SF cell growth in a cell viability assay.

MOLT-16 = assay type: functional, cell-based;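 also: growth inhibition of human MOLT-16 cells, read out with a cell viability assay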
Description: SANGER: Inhibition of human MOLT-16 cell growth in a cell viability assay.

MS-1 = assay type: functional, cell-based;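 also: growth inhibition of MS-1 cells, read out by cell viability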
Description: SANGER: Inhibition of human MS-1 cell growth in a cell viability assay.

MZ2-MEL = assay type: functional, cell-based;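 also: growth inhibition of MZ2-MEL cells read out with a cell viability assay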
Description: SANGER: Inhibition of human MZ2-MEL cell growth in a cell viability assay.

NB6 = assay type: functional, cell-based
Description: SANGER: Inhibition of human NB6 cell growth in a cell viability assay.

NB69 = assay type: functional, cell-based;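 also: growth inhibition of NB69 cells, determined by a cell viability assay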
Description: SANGER: Inhibition of human NB69 cell growth in a cell viability assay.

NCI-H1092 = assay type: functional, cell-based;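 also: cell growth inhibition measured with a cell viability assay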
Description: SANGER: Inhibition of human NCI-H1092 cell growth in a cell viability assay.

NCI-H1155 = assay type: functional, cell-based;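 also: cell growth inhibition measured by a viability assay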
Description: SANGER: Inhibition of human NCI-H1155 cell growth in a cell viability assay.

NCI-H1838 = assay type: functional, cell-based;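 also: growth inhibition of NCI-H1838 cells, determined with a cell viability readout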
Description: SANGER: Inhibition of human NCI-H1838 cell growth in a cell viability assay.

NCI-H209 = assay type: functional, cell-based;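 also: growth inhibition of human NCI-H209 cells, measured by a cell viability assay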
Description: SANGER: Inhibition of human NCI-H209 cell growth in a cell viability assay.

NCI-H2126 = assay type: functional, cell-based;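 also: growth inhibition of the cancer cell line, determined with a cell viability readout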
Description: SANGER: Inhibition of human NCI-H2126 cell growth in a cell viability assay.

NCI-H23 = assay type: functional, cell-based;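 also: cell viability assay measuring growth inhibition of NCI-H23 cells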
Description: SANGER: Inhibition of human NCI-H23 cell growth in a cell viability assay.

NCI-H510A = assay type: functional, cell-based;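 also: growth inhibition of NCI-H510A cells, read out with a cell viability assay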
Description: SANGER: Inhibition of human NCI-H510A cell growth in a cell viability assay.

NCI-H526 = assay type: functional, cell-based;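 also: growth inhibition of the human NCI-H526 cell line, measured by a cell viability assay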
Description: SANGER: Inhibition of human NCI-H526 cell growth in a cell viability assay.

NH-12 = assay type: functional, cell-based;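 also: growth inhibition of NH-12 cells, read out with a cell viability assay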
Description: SANGER: Inhibition of human NH-12 cell growth in a cell viability assay.

NKM-1 = assay type: functional, cell-based;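 also: growth inhibition of NKM-1 cells, read out with a cell viability assay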
Description: SANGER: Inhibition of human NKM-1 cell growth in a cell viability assay.

NOS-1 = assay type: functional, cell-based;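 also: growth inhibition of the human NOS-1 cell line, read out with a cell viability assay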
Description: SANGER: Inhibition of human NOS-1 cell growth in a cell viability assay.

P30-OHK = assay type: functional, cell-based;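 also: growth inhibition of the P30-OHK cell line, read out with a cell viability assay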
Description: SANGER: Inhibition of human P30-OHK cell growth in a cell viability assay.

PSN1 = assay type: functional, cell-based;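 also: suppression of growth of human PSN1 cells, read out by a cell viability assay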
Description: SANGER: Inhibition of human PSN1 cell growth in a cell viability assay.

RCC10RGB = assay type: functional, cell-based;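 also: growth inhibition of human RCC10RGB cells, read out by a cell viability assay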
Description: SANGER: Inhibition of human RCC10RGB cell growth in a cell viability assay.

RPMI-8226 = assay type: functional, cell-based
Description: SANGER: Inhibition of human RPMI-8226 cell growth in a cell viability assay.

Ramos-2G6-4C10 = assay type: functional, cell-based;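 also: growth inhibition of the cell line, measured by a cell viability read-out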
Description: SANGER: Inhibition of human Ramos-2G6-4C10 cell growth in a cell viability assay.

SCC-15 = assay type: functional, cell-based;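 also: growth inhibition of SCC-15 cells, read out with a cell viability assay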
Description: SANGER: Inhibition of human SCC-15 cell growth in a cell viability assay.

SCH = assay type: functional, cell-based;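 also: growth inhibition of human SCH cells, read out in a cell viability assay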
Description: SANGER: Inhibition of human SCH cell growth in a cell viability assay.

SH-4 = assay type: functional, cell-based;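 also: growth inhibition of SH-4 cells, read out with a cell viability assay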
Description: SANGER: Inhibition of human SH-4 cell growth in a cell viability assay.

SK-MEL-2 = assay type: functional, cell-based;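 also: growth inhibition of human SK-MEL-2 cells measured with a cell viability assay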
Description: SANGER: Inhibition of human SK-MEL-2 cell growth in a cell viability assay.

SK-NEP-1 = assay type: functional, cell-based;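 also: growth inhibition of human SK-NEP-1 cells, read out by a cell viability assay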
Description: SANGER: Inhibition of human SK-NEP-1 cell growth in a cell viability assay.

SW684 = assay type: functional, cell-based;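 also: growth inhibition of human SW684 cells, measured by a cell viability assay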
Description: SANGER: Inhibition of human SW684 cell growth in a cell viability assay.

SW872 = assay type: functional, cell-based;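 also: growth inhibition of SW872 cells, read out by a viability assay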
Description: SANGER: Inhibition of human SW872 cell growth in a cell viability assay.

SW982 = assay type: functional, cell-based;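 also: growth inhibition of SW982 cells, read out with a cell viability assay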
Description: SANGER: Inhibition of human SW982 cell growth in a cell viability assay.

TE-1 = assay type: functional, cell-based;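 also: growth inhibition of the human TE-1 cell line, read out with a cell viability assay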
Description: SANGER: Inhibition of human TE-1 cell growth in a cell viability assay.

697 = assay type: functional, cell-based
Description: SANGER: Inhibition of human 697 cell growth in a cell viability assay.

8-MG-BA = assay type: functional, cell-based;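 also: growth inhibition of 8-MG-BA cells, read out with a cell viability assay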
Description: SANGER: Inhibition of human 8-MG-BA cell growth in a cell viability assay.

ACN = assay type: functional, cell-based
Description: SANGER: Inhibition of human ACN cell growth in a cell viability assay.

BB65-RCC = assay type: functional, cell-based
Description: SANGER: Inhibition of human BB65-RCC cell growth in a cell viability assay.

BE-13 = assay type: functional, cell-based
Description: SANGER: Inhibition of human BE-13 cell growth in a cell viability assay.

BV-173 = assay type: functional, cell-based
Description: SANGER: Inhibition of human BV-173 cell growth in a cell viability assay.

TE-5 = assay type: functional, cell-based
Description: SANGER: Inhibition of human TE-5 cell growth in a cell viability assay.

U-87 MG = assay type: functional, cell-based, U-87MG ATCC
Description: SANGER: Inhibition of human U-87-MG cell growth in a cell viability assay.

COLO-684 = assay type: functional, cell-based
Description: SANGER: Inhibition of human COLO-684 cell growth in a cell viability assay.

What does the source list for `N#C/C(=C1/Nc2ccccc2S1)c1ccnc(NCCc2cccnc2)n1`?
pIC50 (COLO-829): < 5.10; pIC50 (D-263MG): < 5.10; pIC50 (DJM-1): < 5.10; pIC50 (EKVX): < 5.10; pIC50 (ES7): 5.52; pIC50 (EW-18): < 5.10; pIC50 (GCIY): 5.26; pIC50 (GOTO): < 5.10; pIC50 (HAL-01): < 5.10; pIC50 (HCE-4): < 5.10; pIC50 (HT): < 5.10; pIC50 (IST-MEL1): < 5.10; pIC50 (IST-SL1): < 5.10; pIC50 (JVM-3): < 5.10; pIC50 (K562): < 5.10; pIC50 (KG-1): < 5.10; pIC50 (KLE): < 5.10; pIC50 (KM-H2): < 5.10; pIC50 (KP-N-YS): < 5.10; pIC50 (KS-1): 5.22; pIC50 (KU812 cell line): 5.18; pIC50 (LB771-HNC): < 5.10; pIC50 (LB831-BLC): 5.24; pIC50 (LS-411N): < 5.10; pIC50 (LXF-289 cell line): < 5.10; pIC50 (MHH-NB-11): < 5.10; pIC50 (MMAC-SF): < 5.10; pIC50 (MOLT-16): 5.86; pIC50 (MS-1): < 5.10; pIC50 (MZ2-MEL): < 5.10; pIC50 (NB6): < 5.10; pIC50 (NB69): < 5.10; pIC50 (NCI-H1092): < 5.10; pIC50 (NCI-H1155): < 5.10; pIC50 (NCI-H1838): < 5.10; pIC50 (NCI-H209): < 5.10; pIC50 (NCI-H2126): < 5.10; pIC50 (NCI-H23): < 5.10; pIC50 (NCI-H510A): < 5.10; pIC50 (NCI-H526): < 5.10; pIC50 (NH-12): < 5.10; pIC50 (NKM-1): 5.64; pIC50 (NOS-1): 5.23; pIC50 (P30-OHK): 5.32; pIC50 (PSN1): < 5.10; pIC50 (RCC10RGB): < 5.10; pIC50 (RPMI-8226): < 5.10; pIC50 (Ramos-2G6-4C10): < 5.10; pIC50 (SCC-15): < 5.10; pIC50 (SCH): < 5.10; pIC50 (SH-4): < 5.10; pIC50 (SK-MEL-2): < 5.10; pIC50 (SK-NEP-1): < 5.10; pIC50 (SW684): < 5.10; pIC50 (SW872): 5.88; pIC50 (SW982): 5.75; pIC50 (TE-1): < 5.10; pIC50 697: < 5.10; pIC50 (8-MG-BA): 5.43; pIC50 (ACN): < 5.10; pIC50 (BB65-RCC): 5.17; pIC50 (BE-13): < 5.10; pIC50 (BV-173): < 5.10; pIC50 (TE-5): < 5.10; pIC50 (U-87 MG): < 5.10; pIC50 (COLO-684): < 5.10

How did the pIC50 (COLO-829) turn out when `CO[C@@]12[C@H](COC(N)=O)C3=C(C(=O)C(C)=C(N)C3=O)N1C[C@@H]1N[C@@H]12` [MITOMYCIN] was run?
The pIC50 was 5.68.

And the pIC50 (D-263MG)?
The pIC50 was 6.27.

And the pIC50 (DJM-1)?
Its pIC50 is 5.99.

And the pIC50 (EKVX)?
The pIC50 was 6.05.

And the pIC50 (ES7)?
Its pIC50 is > 7.20.

And the pIC50 (EW-18)?
Its pIC50 is 5.40.

What about the pIC50 (GCIY) of the same compound?
Its pIC50 is 6.39.

What about the pIC50 (GOTO) of the same compound?
Its pIC50 is 6.26.

What about the pIC50 (HAL-01) of the same compound?
The pIC50 was 7.80.

What about the pIC50 (HCE-4) of the same compound?
Its pIC50 is 7.24.

What about the pIC50 (HT) of the same compound?
Its pIC50 is 5.81.

What about the pIC50 (IST-MEL1) of the same compound?
Its pIC50 is > 7.20.

What about the pIC50 (IST-SL1) of the same compound?
The pIC50 was 5.84.

And the pIC50 (JVM-3)?
The pIC50 was 5.58.

And the pIC50 (K562)?
Its pIC50 is 5.70.

And the pIC50 (KG-1)?
The pIC50 was 6.22.

And the pIC50 (KLE)?
Its pIC50 is 5.53.

And the pIC50 (KM-H2)?
Its pIC50 is 6.88.

What about the pIC50 (KS-1) of the same compound?
Its pIC50 is 6.44.

And the pIC50 (KU812 cell line)?
The pIC50 was 6.82.

And the pIC50 (LB771-HNC)?
The pIC50 was 6.11.

And the pIC50 (LB831-BLC)?
Its pIC50 is 6.09.

What about the pIC50 (LS-411N) of the same compound?
Its pIC50 is 6.49.

And the pIC50 (LXF-289 cell line)?
The pIC50 was 7.26.

What about the pIC50 (MHH-NB-11) of the same compound?
Its pIC50 is 6.72.

What about the pIC50 (MMAC-SF) of the same compound?
Its pIC50 is 5.99.

And the pIC50 (MOLT-16)?
Its pIC50 is 6.23.

What about the pIC50 (MS-1) of the same compound?
Its pIC50 is 6.46.

What about the pIC50 (MZ2-MEL) of the same compound?
The pIC50 was 6.36.

And the pIC50 (NB6)?
The pIC50 was 5.65.

And the pIC50 (NB69)?
Its pIC50 is 6.76.

What about the pIC50 (NCI-H1092) of the same compound?
The pIC50 was 5.48.

And the pIC50 (NCI-H1155)?
Its pIC50 is 6.06.

And the pIC50 (NCI-H1838)?
Its pIC50 is 6.39.

What about the pIC50 (NCI-H209) of the same compound?
Its pIC50 is > 7.20.

What about the pIC50 (NCI-H2126) of the same compound?
Its pIC50 is 6.58.

What about the pIC50 (NCI-H23) of the same compound?
Its pIC50 is 5.92.

What about the pIC50 (NCI-H510A) of the same compound?
Its pIC50 is 6.39.

And the pIC50 (NCI-H526)?
Its pIC50 is 7.17.

And the pIC50 (NH-12)?
Its pIC50 is 6.86.

What about the pIC50 (NKM-1) of the same compound?
The pIC50 was > 7.20.

What about the pIC50 (NOS-1) of the same compound?
Its pIC50 is 5.82.

What about the pIC50 (P30-OHK) of the same compound?
Its pIC50 is > 7.20.

What about the pIC50 (PSN1) of the same compound?
The pIC50 was > 7.20.

What about the pIC50 (RCC10RGB) of the same compound?
Its pIC50 is 5.87.

And the pIC50 (RPMI-8226)?
The pIC50 was 5.91.

And the pIC50 (Ramos-2G6-4C10)?
The pIC50 was 5.59.

What about the pIC50 (SCC-15) of the same compound?
The pIC50 was 6.06.

And the pIC50 (SCH)?
The pIC50 was < 4.80.

And the pIC50 (SH-4)?
Its pIC50 is 6.41.

What about the pIC50 (SK-MEL-2) of the same compound?
Its pIC50 is 5.40.

What about the pIC50 (SK-NEP-1) of the same compound?
Its pIC50 is 6.78.

What about the pIC50 (SW684) of the same compound?
Its pIC50 is < 4.80.

What about the pIC50 (SW872) of the same compound?
The pIC50 was > 7.20.

What about the pIC50 (SW982) of the same compound?
Its pIC50 is 6.98.

And the pIC50 (TE-1)?
The pIC50 was 6.78.

What about the pIC50 697 of the same compound?
The pIC50 was > 7.20.

What about the pIC50 (8-MG-BA) of the same compound?
The pIC50 was 6.98.

What about the pIC50 (ACN) of the same compound?
Its pIC50 is 6.89.

What about the pIC50 (BB65-RCC) of the same compound?
The pIC50 was 6.84.

And the pIC50 (BE-13)?
Its pIC50 is > 7.20.

What about the pIC50 (BV-173) of the same compound?
Its pIC50 is > 7.20.

What about the pIC50 (TE-5) of the same compound?
Its pIC50 is 6.88.

What about the pIC50 (U-87 MG) of the same compound?
The pIC50 was 5.89.

And the pIC50 (COLO-684)?
The pIC50 was 6.10.

Reference: ChEMBL document CHEMBL1201861, “Genomics of Drug Sensitity in Cancer screening data, Wellcome Trust Sanger Institute”
